# Measurements reported in US12552760B2, “Compounds for increasing the nicotinamide adenine dinucleotide in a subject and methods of use thereof” (The Board of Trustees of the University of Illinois, priority 2022, dated 2026).
# Entries after “also recorded” stand apart in the source; their conditions may differ.
# Key:
# THP-1 human monocytes = assay: Measurement of cellular NAD^+ levels in THP-1 cell cultures (NAD/NADH-Glo); type: cell-based; conditions: for potency in THP-1 relative to NP-A3-B2 (cellular EC50 not quantifiable): dose response studies; for ability to raise NAD^+ levels compared to the parent compound NP-A3-B2: initial screening, 3 μM, 24 hours, data not shown
# Description: Measurement of cellular NAD^+ levels in THP-1 cell cultures. Using FK-866 and NMN as negative and positive controls, respectively, we explored a number of cell lines to select a highly reproducible model system with good dynamic range. We optimized a commercial NAD-glo assay in the THP-1 human leukemic monocyte cell line in 96-well plates, measuring NAD^+ after incubation with test compounds for 24 hours. […] All cells were grown at 37° C., under 5% CO2 in a humidified incubator. Low passage THP-1 cells (37,500 cells/well) were seeded in 96-well plates and incubated at 37° C. and 5% CO2 for 1½ h prior to a 24 h treatment. All compounds were dissolved in DMSO, and final DMSO concentrations never exceeded 1%. The NAD^+ levels in the cells are measured using the NAD^+/NADH-Glo™ assay (Promega). The assays were performed in triplicate for each concentration and the IC50 values were determined from non-linear regression analysis of the dose-response curve generated in GraphPad Prism 9.
# [1] = test system: HT-22 mouse hippocampal cell line; assay: TNFα-induced ROS in HT-22 cells (MitoSOX); type: cell-based; conditions: for effect on ROS levels across tested concentrations: screened against 1 μg/mL TNFα (FIG. 2A)
# Description: (§1) Cell Culture and Drug Treatments. HT22 mouse hippocampal neuronal cells (a gift from the Salk Institute) were grown in Dulbecco's modified Eagle's medium (DMEM) containing 10% FBS and 1× Antibiotic-Antimycotic (ABAM). Cells were maintained in a humidified 5% CO2 atmosphere incubator at 37° C., and were passaged when 60-80% confluent (1-2 days) by removing media, rinsing with phosphate buffered saline (PBS), and enzymatically detaching with trypsin solution. New culture dishes were seeded with ¼ to ½ the cells from the previous dish.
# All assays were performed using cells with passage number 12-50. The inner 60 wells of black-walled (Corning®3603/3604) 96-well plates were treated with poly D-lysine (30 μL/well) making sure to cover the entire well surface for 15-30 seconds and then washed thoroughly with sterile water (3×−200 μL/well). TNFα stock solutions (10 μg/mL, PBS (0.1% BSA)) were made, aliquoted, and stored at −80° C. Glutamate stock solutions were made fresh immediately before assay. All compound stock solutions (10 mM, DMSO) were made and stored at −20° C.
# Cells were plated at a seeding density of 3,000-5,000 cells/well and allowed to incubate overnight. The next day (18-24 hours later) cells were pretreated with N-PAMs, carefully ensuring equivalent vehicle (DMSO/PBS) composition in each well. After 18-24 hours, stressors (glutamate or TNFα) were treated. Live cell count, ROS level, and total cell count were then assessed after another 18-24 hours.
# ROS Detection. ROS levels were quantified using MitoSOX Red Mitochondrial Superoxide Indicator (Invitrogen). At treatment endpoint, the cell culture media was removed and replaced with phosphate buffered saline (PBS) containing 1 μM calcein-AM, 5 μM MitoSOX, and 10 μg/mL Hoechst dyes. Cells were incubated for 30-45 minutes and then dye-containing PBS was dumped and replaced with 100 μL/well fresh PBS. The plate was immediately analyzed in the Celigo Imaging Cytometer using the Live-Dead-Total protocol, where MitoSOX was used in place of propidium iodide. The cell counts and fluorescence intensities for living (calcein), MitoSOX-stained, and total (Hoechst) were acquired. MitoSOX average mean fluorescence intensity (“dead” average mean intensity) was used to quantify mitochondrial ROS. All readouts used were transformed into fold-change over vehicle treatment for visualization.
# We set out to design assays representing the connection between OS and the multifaceted pathophysiology of aging and ND. We assessed multiple treatments in several cell lines to model OS induced by diverse factors such as neuroinflammatory signaling, neurotransmitter signaling, and direct oxidant species. Assay development highlighted the neuronal HT-22 mouse hippocampal cell line as most robust for these purpose s, and inflammatory cytokine TNFα as being a reliable and disease-relevant method for inducing ROS generation.
# NAMPT = molecular target: T1, NAMPT (Homo sapiens, UniProt P43490); assay: NAMPT coupled enzyme activity assay (HTS coupled three-enzyme assay); type: biochemical; conditions: dose-response (FIG. 1B)
# T1 construct: His6 (C); made in house
# T1 sequence (P43490 whole entry): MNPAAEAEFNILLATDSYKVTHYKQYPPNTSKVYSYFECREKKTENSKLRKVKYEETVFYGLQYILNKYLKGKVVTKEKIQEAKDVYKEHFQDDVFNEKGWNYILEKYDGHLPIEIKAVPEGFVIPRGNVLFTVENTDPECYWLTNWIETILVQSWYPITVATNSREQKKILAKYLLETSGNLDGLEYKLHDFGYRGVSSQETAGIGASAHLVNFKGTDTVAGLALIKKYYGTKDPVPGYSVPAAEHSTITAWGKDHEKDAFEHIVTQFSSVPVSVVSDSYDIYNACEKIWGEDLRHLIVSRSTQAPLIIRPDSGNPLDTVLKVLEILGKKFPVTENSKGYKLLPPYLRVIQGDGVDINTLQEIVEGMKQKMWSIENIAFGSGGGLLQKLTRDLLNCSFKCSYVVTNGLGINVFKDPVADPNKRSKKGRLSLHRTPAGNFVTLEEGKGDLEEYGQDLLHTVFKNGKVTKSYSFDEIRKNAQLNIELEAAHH
# Text: NAMPT coupled enzyme activity assay. The NAMPT enzyme assay is based on conditions from Burgos and Schramm and adapted to include a cycling reaction to quantitate NAD^+ production colorimetrically^1. The assay follows the NAMPT-catalyzed production of NMN from substrates NAM and PRPP by coupling NMN formation to the NMNAT reaction, which produces NAD^+ from NMN and ATP. The NAD^+ is then cycled by alcohol dehydrogenase (ADH) and diaphorase to continuously produce WST-1 formazan, which can be detected at 450 nm. Assays are performed at 25° C. in clear 384-well plates, with a final assay volume of 30 μL, and contain the following: 50 mM HEPES, pH 7.5, 5 mM MgCl2, 50 mM NaCl, 0.01% Triton-X 100, 2.5 mM ATP, 40 μM PRPP, 1-500 μM NAM, 1.5 μL WST-1 (Roche Cell Proliferation Reagent), 1 U/mL ADH, 0.083 U/mL diaphorase, 1.5% ethanol, 1% DMSO, 30 nM NAMPT, and 7.4 nM purified human NMNAT1. N-terminal His6-NMNAT1 and C-terminal His6-NAMPT were overexpressed and purified by metal chelate affinity chromatography. Following assay assembly, well signals were measured continuously at 450 nm on a Tecan Infinite M200 plate reader for 1 h with intermittent shaking. Slopes of the linear portions of the reaction progress curves were recorded and corrected for background by subtracting the average slope of control wells containing NAMPT inhibitor FK866.
# A high-throughput screen (HTS) of 22,000 compounds was performed to identify those that augment NAMPT enzymatic activity^38. Screening used a coupled three-enzyme assay to detect conversion of NAM to NAD^+, as previously described by our group^37. […] We also established assays in which to assess the ability of our compounds to mitigate neuronal oxidative stress.
# [2] = test system: HT-22 mouse hippocampal cell line; assay: Glutamate-induced ROS in HT-22 cells (MitoSOX); type: cell-based; conditions: 75 mM glutamate
# Description: as §1
# All assays were performed using cells with passage number 12-50. […]
# Cells were plated at a seeding density of 3,000-5,000 cells/well and allowed to incubate overnight. […] Live cell count, ROS level, and total cell count were then assessed after another 18-24 hours.
# ROS Detection. ROS levels were quantified using MitoSOX Red Mitochondrial Superoxide Indicator (Invitrogen). […] The plate was immediately analyzed in the Celigo Imaging Cytometer using the Live-Dead-Total protocol, where MitoSOX was used in place of propidium iodide. The cell counts and fluorescence intensities for living (calcein), MitoSOX-stained, and total (Hoechst) were acquired. MitoSOX average mean fluorescence intensity (“dead” average mean intensity) was used to quantify mitochondrial ROS. All readouts used were transformed into fold-change over vehicle treatment for visualization.
# [3] = test system: Tg2576/PGC-1α knockout mice; conditions: 250 mg/kg/d (p.o) 3 months; Gong, B. et al. 2013; cited from earlier work
# [4] = test system: hSOD1^G93A mouse derived astrocytes and motor neurons; conditions: NR or NMN, 5 mM, 24-72 h; Harlan, B. A. et al. 2019; cited from earlier work
# Csb^m/m mice = conditions: 500 mg/kg/d (i.p.) 1 week; Scheibye-Knudsen, M. et al. 2014; cited from earlier work
# GMC101 worms = conditions: 1 mM, 1-8 days; Sorrentino, V. et al. 2017; cited from earlier work
# [5] = test system: 3xTgAD, and 3xTgAD/Polβ^+/− mice; conditions: 12 mM in drinking water p.o. 6 months; Hou, Y. et al. 2018; cited from earlier work
# APPSwe/PSEN1dE9 mice = conditions: 400 mg/kg/d (p.o.) 10 weeks; Sorrentino, V. et al. 2017; cited from earlier work
# [6] = dose response study, 30 μM (FIG. 1A)
smiles,measurement,setting,value
"COc1ccc(CN(CCC2(C(C)C)CCOC(C)(C)C2)C(=O)c2ccsc2)cc1 (stereo not drawn) [JGB-1-127, N-(2-(4-isopropyl-2,2-dimethyltetrahydro-2H-pyran-4-yl)ethyl)-N-(4-methoxybenzyl)thiophene-3-carboxamide]",potency in THP-1 relative to NP-A3-B2 (cellular EC50 not quantifiable),THP-1 human monocytes,improved potency
same,ability to raise NAD^+ levels compared to the parent compound NP-A3-B2,THP-1 human monocytes,significantly greater ability to raise NAD^+ levels
"CC(C)C1(CCN(Cc2ccc3[nH]ccc3c2)C(=O)c2ccco2)CCOC(C)(C)C1 (stereo not drawn) [JGB-1-134, N-((1H-indol-5-yl)methyl)-N-(2-(4-isopropyl-2,2-dimethyltetrahydro-2H-pyran-4-yl)ethyl)furan-2-carboxamide]",ability to raise NAD^+ levels compared to the parent compound NP-A3-B2,THP-1 human monocytes,significantly greater ability to raise NAD^+ levels
same,effect on ROS levels at 40 μM,"[1]; 1 μg/mL TNFα, 40 μM compound (FIG. 2A)",trended toward ROS mitigation
same,effect on ROS levels across tested concentrations,[1],little effect until 40 μM
"COc1ccc(CN(CCC2(C(C)C)CCOC(C)(C)C2)C(=O)c2cccs2)cc1 (stereo not drawn) [JGB-1-137, N-(2-(4-isopropyl-2,2-dimethyltetrahydro-2H-pyran-4-yl)ethyl)-N-(4-methoxybenzyl)thiophene-2-carboxamide]",NAD^+ production in THP-1,"THP-1 human monocytes; SAR summary, thiophene replacement of the R^2 furan (FIGS. 4 and 5)",significantly improved NAD^+ production
same,potency in THP-1 relative to NP-A3-B2 (cellular EC50 not quantifiable),THP-1 human monocytes,improved potency
same,ability to raise NAD^+ levels compared to the parent compound NP-A3-B2,THP-1 human monocytes,significantly greater ability to raise NAD^+ levels
same,effect on ROS levels across tested concentrations,[1],dose-dependent downward trend in ROS levels
"COc1ccc(CN(CCC2(C(C)C)CCOC(C)(C)C2)C(=O)c2cnc[nH]2)cc1 (stereo not drawn) [JGB-1-147, N-(2-(4-isopropyl-2,2-dimethyltetrahydro-2H-pyran-4-yl)ethyl)-N-(4-methoxybenzyl)-1H-imidazole-5-carboxamide]",IC50,NAMPT; NAMPT inhibition,5.32 µM
same,Amax,NAMPT,0.25 fold
same,effect on NAMPT activity,NAMPT,inhibitory activity; also recorded: inhibits NAMPT
"CC(C)C1(CCN(Cc2ccc(N(C)C)cc2)C(=O)c2ccco2)CCOC(C)(C)C1 (stereo not drawn) [JGB-1-155, N-(4-(dimethylamino)benzyl)-N-(2-(4-isopropyl-2,2-dimethyltetrahydro-2H-pyran-4-yl)ethyl)furan-2-carboxamide]",activity in THP-1,THP-1 human monocytes; SAR summary (FIGS. 4 and 5),improved activity
same,potency in THP-1 relative to NP-A3-B2 (cellular EC50 not quantifiable),THP-1 human monocytes,improved potency
same,NAD^+ fold over control,THP-1 human monocytes; [6],1.88 fold
same,increase in NAD^+ over control,THP-1 human monocytes; [6],88%
same,ability to raise NAD^+ levels compared to the parent compound NP-A3-B2,THP-1 human monocytes,significantly greater ability to raise NAD^+ levels
same,EC50,NAMPT; NAMPT activation,3.41 µM
same,ROS-reducing activity against glutamate insult,[2],dose-dependent ROS-reducing activity
same,ROS levels relative to vehicle treated control,[2]; 20 μM and 40 μM (FIG. 2D),decreased ROS levels below that of the vehicle treated control
same,ROS attenuation relative to other analogs and the hit,[1]; 1 μg/mL TNFα (FIG. 2A),outperformed all other analogs and the hit in ROS attenuation
same,activity in HT-22,"[1]; SAR summary, over the 4-methoxy compounds (FIGS. 4 and 5)",improved activity
same,reduction of TNFα-induced ROS,"[1]; further replicates, 20 μM and 40 μM (FIG. 2B)",highly significant reduction of TNFα-induced ROS
same,effect on ROS levels across tested concentrations,[1],dose-dependent downward trend in ROS levels
NC(=O)c1ccc[n+]([C@@H]2O[C@H](CO)[C@@H](O)[C@H]2O)c1 [NR],NAD^+ levels and PGC-1α expression,[3],Increased NAD^+
same,cognitive (novel object recognition) performance,[3],Improved
same,synaptic plasticity,[3],Improved synaptic
same,Nrf2 mediated Antioxidant Response Element activation,[4],Increased Nrf2
same,"cerebellar NAD^+ ATP, mitochondrial function",Csb^m/m mice,Rescued
same,"gene profile associated with oxidative stress, DNA repair, mitochondrial function",Csb^m/m mice,Normalized gene
same,health- and lifespan of worms,GMC101 worms,Increased health-
same,proteotoxicity and aggregation of Aβ,GMC101 worms,Reduced
same,NAD^+/NADH ratio,[5],Increased
same,"learning, memory, motor function, and anxiety",[5],Improved
same,neurogenesis,[5],Increased
same,neuroinflammation,[5],Decreased
same,p-Tau levels,[5],Decreased p-Tau
same,synaptic plasticity,[5],Restored synaptic
same,Aβ aggregation,APPSwe/PSEN1dE9 mice,Reduced Aβ
same,impaired memory,APPSwe/PSEN1dE9 mice,Enhanced
same,mitochondrial function,APPSwe/PSEN1dE9 mice,Improved
O=C(NCc1ccncc1)Nc1ccc(S(=O)(=O)N2CC3CCC(C2)O3)cc1 [SBI-797812],effect on ROS levels across tested concentrations,[1],no significant effects on ROS at any concentration tested
